Experimental data: patent publication US9233913B2, “Amino acid derivatives for the treatment of neuropathic pain” (priority 2009, dated 2016)
Read-outs that look alike come from different tables or passages of the source.

Experiments:
[1] = system: metrazole-induced clonic convulsions and mortality; assay: Metrazole-induced convulsions model; settings: metrazole 100 mg/kg, 100% = score 9
[2] = target: T1, Gabapentin binding site (Rattus norvegicus, UniProt P54290); assay: [3H]-gabapentin binding assay, Method 2 (crude rat brain membranes); settings: 20 nM [3H]-gabapentin; for % inhibition 1 μM: compound 1 μM; for % inhibition 10 μM: compound 10 μM
Protocol: Membrane preparation: cortices from 5 rats were homogenized in a 0.32 M sucrose solution containing 10 mM HEPES/KOH. Suspensions were centrifuged for 10 minutes at 2500×g and the supernatants were centrifuged at 48000×g for 20 minutes. […] The final pellets were re-suspended in 10 mM HEPES/KOH. Protein concentration was determined using a BCA kit from Pierce (Rockford, Ill.). The quality of the preparation was assessed in a binding assay to gabapentin.
Binding assay: in 96-well plates, the selected compounds were incubated in 10 mM HEPES/KOH pH 7.4 at concentrations of 10 and 1 μM for 30 minutes at room temperature in the presence of 20 nM [^3H]-gabapentin and rat brain membranes (300 μg/mL of proteins). Radioactivity was assessed after filtration with the Tomtec cell harvester using a glass fiber filter A. Counts were obtained using the Microbeat Trilux counter.
[formula] wherein: [total binding]s is the total binding of [^3H]-gabapentin in the presence of the compound; [non-specific binding]c is the non specific binding of [^3H]-gabapentin in the presence of 100 μM cold gabapentin (c=control); and [total binding]c is the total binding of [^3H]-gabapentin alone.

[3] = system: Diet-Induced Obesity (DIO) mouse model; assay: Diet-Induced Obesity (DIO) mouse model: glycemia, insulin, body weight; type: in vivo; settings: DIO mice; 100 mg/kg BID oral gavage, 7 days
Protocol: The objective of this study is to determine the effect of the compounds of the invention, namely Compounds 6A, 6B and 18, glycemia, insulin and body weight gain in a Diet-Induced Obesity (DIO) mouse model. Results are compared with (2S,3R,4S)-4-hydroisoleucine (positive control) and vehicle (negative control).
C57BL/6 mice are tested at 17-18 weeks of age and fed a high fat diet (60% of calories from fat) for 8 weeks. Fasted glycemia and body weight values are used to randomize the mice into control and treatment groups (n=8). The animals are treated twice dally (BID) (once on 7th day) by oral gavage with 4-hydroxyisoleucine, Compounds 6A, 6B and 18 (100 mg per kg of body weight), and the control group receive vehicle (water) alone. The animals are treated for 7 days.
Oral glucose Tolerance Test (OGTT) is performed at 5 hours±30 minutes Post starvation (day 0 only) or Post AM test article administration (for day 7). Blood samples are collected via tail vein for glucose determination prior to glucose challenge (Pre-OGTT) and at 5, 10, 20, 30, 60, 90 and 120 minutes post-glucose administration. Glucose determination is perfomed using a hand held glucometer (Model OneTouch Ultra, LifeScan).
A second blood sample is also collected Pre-OGTT and at 5, 10, 60 and 120 minutes Post-OGTT for insulin determination. Insulin determination is done using an enzyme Immunoassay kit (Mecodia Ultrasensitive Mouse Insulin ELISA, ALPCO Diagnostics, Wndham, N.H.).
Body weight of the mice is measured at arrival, randomization, and on days 0, 3 and 7 of treatment. At the end of the study, the epididymal fat pads were isolated and weighed. Data are expressed as mean±SEM of body weight and mean±SEM of fat pad weight.

[4] = target: T1, Gabapentin binding site; settings: Method 1, rat brain membranes, 3H-gabapentin; for % inhibition 1 μM: compound 1 μM; for % inhibition 10 μM: compound 10 μM
Protocol: Materials: Gabapentin is from TRC, [^3H]-Gabapentin is from GE Healthcare, and Meltilex A sheets (melt-on scintillator sheets) are from Perkin Elmer. Rat brain membranes are prepared in-house by conventional methods.
All solutions are prepared for the assay just before use, except for the membrane dilution. […] The final compound concentration in the assay is 1, 10 and 100 μM. The same is done with a solution not containing the test articles as control. The test plate is then incubated for 30 minutes at room temperature with agitation. The binding reaction is terminated using a Tomtec cell harvester machine (Mach III M-FP-1). A meltilex sheet is placed on the filtermat (harvest from the assay) and is allowed to melt in the oven at 65° C. for 1 to 4 min. The filter is inserted in the plastic pouch, which is sealed and allowed to cool for 1 h before counting with a Microbeta Trilux counter (Perkin Elmer).
Results are calculated using the count per minutes (CPM) obtained for each sample with the Trilux. The CPM obtained for the control diluent represents the 100% binding of ^3H-Gabapentin to membrane. The CPM obtained for the control gabapentin 100 μM represents the 0% binding. The % of binding for each compound is calculated by the formula: […]

[5] = Pharmacokinetic profile in mice; type: in vivo; settings: mouse, plasma, read-out: Bioavailability (% F)
Protocol: Compounds are tested for pharmacokinetic profile, including oral bioavailability in mice using the following procedure. Bioavailability estimates are performed after administration of 100 mg/kg of Compound 6B and 50 mg/kg of Compound 18 either Intravenously (IV) or orally (PO). Four animals per time point, per mode of administration are used. At each specific time point following drug administration, a blood sample is collected terminally (under isoflurane anesthesia) via cardiac puncture from each the 4 animals. Samples are collected at pre-dose and at 5, 15, 30, and 60 minutes and at 2, 4, 6, 8, 14 and 24 hours post oral administration and at pre-dose and 2, 5, 15, 30, and 60 minutes and 2, 4, 8, 14 and 24 hours post intravenous administration. Blood samples are collected into tubes containing K3-EDTA as anticoagulant, kept on ice until centrifugation at 4° C. at a minimum speed of 3000 rpm (1620G) for 10 min. Plasma samples are harvested into polypropylene tubes, immediately placed on dry ice and stored at −80° C.
Compounds in mouse plasma are extracted using protein precipitation. Quantitation of the compounds in mouse plasma matrix is achieved using LC-MS detection. Sample concentration is calculated using a calibration curve. FIGS. 3A and 3B show mouse PK curves in log scale for Compounds 6B and 18 respectively. […]

[6] = Pharmacokinetic profile in dogs; type: in vivo; settings: one female Beagle dog
Protocol: The pharmacokinetic profile of Compound 18 is evaluated in one female Beagle dog. One single oral and one single IV dose of 25 mg/kg separated by a wash-out period are administered to the dog to get key preliminary information about the pharmacokinetics and oral bioavailability of Compound 18.

T1 sequence (P54290 25-1091): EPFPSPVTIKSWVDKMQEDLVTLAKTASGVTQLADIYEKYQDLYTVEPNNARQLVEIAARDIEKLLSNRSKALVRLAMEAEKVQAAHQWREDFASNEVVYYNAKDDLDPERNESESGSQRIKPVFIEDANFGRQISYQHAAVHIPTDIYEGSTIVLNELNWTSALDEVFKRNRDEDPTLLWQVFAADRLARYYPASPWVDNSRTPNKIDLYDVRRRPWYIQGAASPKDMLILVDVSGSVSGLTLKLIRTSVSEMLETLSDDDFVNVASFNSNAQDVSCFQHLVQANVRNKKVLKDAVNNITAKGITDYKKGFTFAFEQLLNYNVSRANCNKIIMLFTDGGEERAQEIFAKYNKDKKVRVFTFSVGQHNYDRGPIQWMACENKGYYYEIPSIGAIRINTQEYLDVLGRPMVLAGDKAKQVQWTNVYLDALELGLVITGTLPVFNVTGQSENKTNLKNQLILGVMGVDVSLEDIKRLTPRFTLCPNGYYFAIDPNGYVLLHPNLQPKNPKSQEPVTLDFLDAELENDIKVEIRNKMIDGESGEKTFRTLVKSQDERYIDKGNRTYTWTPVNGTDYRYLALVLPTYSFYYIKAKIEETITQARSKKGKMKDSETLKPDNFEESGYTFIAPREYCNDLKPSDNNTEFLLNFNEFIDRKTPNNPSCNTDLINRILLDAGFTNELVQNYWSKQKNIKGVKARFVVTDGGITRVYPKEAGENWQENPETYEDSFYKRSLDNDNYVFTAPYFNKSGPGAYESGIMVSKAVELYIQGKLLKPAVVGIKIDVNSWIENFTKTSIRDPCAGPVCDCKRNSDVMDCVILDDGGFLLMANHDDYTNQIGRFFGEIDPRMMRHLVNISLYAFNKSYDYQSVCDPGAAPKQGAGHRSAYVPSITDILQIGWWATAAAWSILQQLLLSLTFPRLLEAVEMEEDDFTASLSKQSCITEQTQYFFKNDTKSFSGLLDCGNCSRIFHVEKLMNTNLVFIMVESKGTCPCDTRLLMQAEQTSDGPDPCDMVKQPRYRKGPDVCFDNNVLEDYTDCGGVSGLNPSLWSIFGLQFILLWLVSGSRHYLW

Q: For `CN1C(=O)CN=C(c2ccccc2)c2cc(Cl)ccc21` [Diazepam, diazepam], which “% Prevention of convulsions in mice” value ([1]; dose 1 mg/kg) is on record?
A: 67%

Q: For `N[C@@H](C[C@H]1CCCO1)C(=O)O` [Compound 7], which “% inhibition 1 μM” value [2] is on record?
A: 19% (±4)

Q: What about the “% inhibition 10 μM” value [2] of the same molecule?
A: 1% (±1)

Q: What about the “effect on glycemia compared to control” value [3] of the same molecule?
A: neutral or beneficial effect

Q: What about the “effect on insulin compared to control” value [3] of the same molecule?
A: neutral or beneficial effect

Q: Which “% inhibition 1 μM” value [4] does the source give for `N[C@@H](CC1CCCO1)C(=O)O` (stereo partly shown) [Compound 6] here?
A: 82%

Q: What about the “% inhibition 10 μM” value [4] of the same molecule?
A: 92%

Q: Which “% inhibition 1 μM” value [4] does the source give for `C[C@@H]([C@H](C)O)[C@H](N)C(=O)O` [Compound 4-HO-Ile, (2S,3R,4S) 4-hydroxyisoleucine, reference compound] here?
A: 13%

Q: And the “% inhibition 10 μM” value [4]?
A: 51%

Q: Which results are given for `N[C@@H](C[C@@H]1CCCO1)C(=O)O` [Compound 8]?
A: % inhibition 1 μM [2]: 11% (±1); % inhibition 10 μM [2]: 0% (±2); effect on glycemia compared to control [3]: neutral or beneficial effect; effect on insulin compared to control [3]: neutral or beneficial effect; bioavailability ([5]; 100 mg/kg IV or PO): ~100%

Q: With `N[C@H](C(=O)O)[C@@H]1CCCC[C@H]1O` [Compound 18] as the molecule, how does the “% inhibition 1 μM” value [4] read?
A: 87%

Q: And the “% inhibition 10 μM” value [4]?
A: 90%

Q: What about the “% inhibition 1 μM” value [2] of the same molecule?
A: 21% (±3)

Q: What about the “% inhibition 10 μM” value [2] of the same molecule?
A: 6% (±1)

Q: What about the “effect on glycemia compared to control” value [3] of the same molecule?
A: no effect

Q: What about the bioavailability ([5]; 50 mg/kg IV or PO) of the same molecule?
A: 88.4%

Q: And the bioavailability ([6]; in vivo, 25 mg/kg oral and IV)?
A: 97%

Q: And the “absorption following oral administration” value ([6]; 25 mg/kg oral)?
A: rapidly and very well absorbed

Q: And the first pass effect ([6]; 25 mg/kg oral)?
A: does not demonstrate any significant first pass effect

Q: What about the terminal half live ([6]; 25 mg/kg single dose) of the same molecule?
A: around 7 hours

Q: And the “% Prevention of convulsions in mice” value ([1]; dose 200 mg/kg)?
A: 67%

Q: Which “% Prevention of convulsions in mice” value ([1]; dose 100 mg/kg) does the source give for `NCC1(CC(=O)O)CCCCC1` [Gabapentin] here?
A: 67%

Q: Which “% inhibition 1 μM” value [2] does the source give for `N[C@@H](Cc1ccco1)C(=O)O` [(2S)-Compound, (2S)-3-(2-furyl)alanine] here?
A: 61% (±8)

Q: And the “% inhibition 10 μM” value [2]?
A: 16% (±3)
